Read-outs that look alike come from different tables or passages of the source.
What was measured:
[1] = Berzosertib plasma and urine pharmacokinetics (LC-MS/MS, non-compartmental analysis); format: in vivo, human; conditions: for AUC(0-inf) / Cmax / clearance / Vd / half-life: iv, plasma; for Vd: read-out: Vss
Description: PK assessments for berzosertib were conducted during the monotherapy lead-in and during cycles 1 and 2. Blood samples for berzosertib plasma PK assessments were collected following the single-agent dose, from day 1 of combination dosing (pre-dose, 0.5 h before the end of infusion, at end of infusion and 0.5, 1, 2, 3, 7, 23, 47 and 71 h after the end of infusion), on day 9 (pre-dose) and cycle 2 day 2 (pre-dose and 2 h after the end of infusion). Cumulative urine samples were collected for PK assessments on days 2 and 3 of cycle 1 (pre-dose—3, 3–7, 7–11 and 11–23 h). Berzosertib concentrations were quantified using a validated liquid chromatography tandem-mass spectrometry method and plasma PK was characterised by non-compartmental analyses using Phoenix WinNonlin 6.4 (Certara USA Inc, Princeton, NJ, USA).
Safety data, baseline patient demographics and disease characteristics were summarised descriptively for the combination safety set—which included all enrolled patients who received at least one dose of study drug. PK data were collected in the PK analysis set, defined as all enrolled patients who received at least one dose of berzosertib and provided at least one measurable post-dose sample. […] Standard non-compartmental methods were used to determine PK parameters.

[2] = test system: patients with advanced solid tumours
Description: Part A was a 3 + 3 dose-escalation Phase 1 study evaluating the safety, tolerability, pharmacokinetics (PK) and preliminary efficacy of berzosertib in combination with gemcitabine with or without cisplatin (NCT02157792) (Fig. 1). Patients were enrolled in cohorts of three, with subsequent cohort expansion and dose-escalation decisions based on safety review, available PK data and observations of dose-limiting toxicities (DLTs) until the end of treatment cycle 1.
A 7–14-day lead-in period with single ascending doses of intravenous (i.v.) berzosertib was planned to assess the safety of berzosertib monotherapy; the requirement for the lead-in period was removed after review of safety data both during the study and from a concurrent study of berzosertib monotherapy.[17] […] Based on preclinical studies, a starting dose of 18 mg/m^2 and a dosing regimen of i.v. berzosertib on days 2 and 9, ~24 ± 4 h after dosing with gemcitabine ± cisplatin, was selected.[17] […] Patients received i.v. gemcitabine on days 1 and 8, with or without i.v. cisplatin on day 1. […]
Treatment-emergent adverse events (TEAEs) and DLTs were reported using National Cancer Institute (NCI) Common Terminology Criteria for Adverse Events (CTCAE) version 4.0. […] All AEs of any grade were recorded and followed up until resolution. Safety was evaluated throughout treatment and was used to inform dose-escalation decisions. […]

ATR = test system: ATR; design: method as in PMID 23222511, PMID 25010037; conditions: inhibitor of ATR; cited from earlier work
[3] = human, 18 mg/m2, berzosertib 18 mg/m^2 i.v., lead-in period, berzosertib alone, mean (% CV), n = 3
[4] = human, 36 mg/m2, berzosertib 36 mg/m^2 i.v., lead-in period, berzosertib alone, mean (% CV), n = 3
[5] = human, 60 mg/m2, berzosertib 60 mg/m^2 i.v., lead-in period, berzosertib alone, mean (% CV), n = 4
[6] = human, 72 mg/m2, berzosertib 72 mg/m^2 i.v., lead-in period, berzosertib alone, mean (% CV), n = 7
[7] = human, 90 mg/m2, berzosertib 90 mg/m^2 i.v., lead-in period, berzosertib alone, mean (% CV), n = 6
[8] = human, 140 mg/m2, berzosertib 140 mg/m^2 i.v., lead-in period, berzosertib alone, mean (% CV), n = 5
[9] = human, 210 mg/m2, berzosertib 210 mg/m^2 i.v., lead-in period, berzosertib alone, mean (% CV), n = 2

Structure (SMILES): CNCc1ccc(-c2cc(-c3nc(-c4ccc(S(=O)(=O)C(C)C)cc4)cnc3N)on2)cc1 [Berzosertib]
- Dose proportionality of exposure ([1]; from 18 to 210 mg/m^2): approximately dose-proportional
- CL renal ([1]; human, intravenous, part A, urine, read-out: Mean renal clearance (converted)): 60 mL/min
- AUC(0-inf) [1, 3]: 351 ng·h/mL
- Cmax [1, 3]: 72 ng/mL
- clearance [1, 3]: 1640 mL/min
- Vd [1, 3]: 1600 L
- half-life ([1]; human, 18 mg/m2, berzosertib 18 mg/m^2 i.v., lead-in period, berzosertib alone, mean (% CV), n = 3, read-out: t½ (converted)): 14 h
- AUC(0-inf) [1, 4]: 913 ng·h/mL
- Cmax [1, 4]: 176 ng/mL
- clearance [1, 4]: 1500 mL/min
- Vd [1, 4]: 1280 L
- half-life ([1]; human, 36 mg/m2, berzosertib 36 mg/m^2 i.v., lead-in period, berzosertib alone, mean (% CV), n = 3, read-out: t½ (converted)): 14.2 h
- AUC(0-inf) [1, 5]: 1700 ng·h/mL
- Cmax [1, 5]: 345 ng/mL
- clearance [1, 5]: 1300 mL/min
- Vd [1, 5]: 1280 L
- half-life ([1]; human, 60 mg/m2, berzosertib 60 mg/m^2 i.v., lead-in period, berzosertib alone, mean (% CV), n = 4, read-out: t½ (converted)): 15 h
- AUC(0-inf) [1, 6]: 2280 ng·h/mL
- Cmax [1, 6]: 536 ng/mL
- clearance [1, 6]: 1040 mL/min
- Vd [1, 6]: 1040 L
- half-life ([1]; human, 72 mg/m2, berzosertib 72 mg/m^2 i.v., lead-in period, berzosertib alone, mean (% CV), n = 7, read-out: t½ (converted)): 15.2 h
- AUC(0-inf) [1, 7]: 2370 ng·h/mL
- Cmax [1, 7]: 451 ng/mL
- clearance [1, 7]: 1240 mL/min
- Vd [1, 7]: 1320 L
- half-life ([1]; human, 90 mg/m2, berzosertib 90 mg/m^2 i.v., lead-in period, berzosertib alone, mean (% CV), n = 6, read-out: t½ (converted)): 17.2 h
- AUC(0-inf) [1, 8]: 4550 ng·h/mL
- Cmax [1, 8]: 817 ng/mL
- clearance [1, 8]: 1010 mL/min
- Vd [1, 8]: 1150 L
- half-life ([1]; human, 140 mg/m2, berzosertib 140 mg/m^2 i.v., lead-in period, berzosertib alone, mean (% CV), n = 5, read-out: t½ (converted)): 17 h
- AUC(0-inf) [1, 9]: 6130 ng·h/mL
- Cmax [1, 9]: 808 ng/mL
- clearance [1, 9]: 1270 mL/min
- Vd [1, 9]: 1550 L
- half-life ([1]; human, 210 mg/m2, berzosertib 210 mg/m^2 i.v., lead-in period, berzosertib alone, mean (% CV), n = 2, read-out: t½ (converted)): 16.8 h
- half-life ([1]; human, i.v., 18–210 mg/m^2, read-out: Apparent terminal half-life (converted)): ~17 h
- PK when administered ~24 h after gemcitabine, with or without cisplatin, versus berzosertib alone ([1]; in vivo): not significantly different
- Mean percentage excreted in the urine ([1]; part A): 5%
- Accumulation ([1]; weekly administration): not observed
- Trends in laboratory results (serum chemistry, haematology, urinalysis), vital signs or ECG parameters attributable to treatment ([2]; in vivo): no clinically meaningful trends
- Patients with acute hypersensitivity ([2]; on second infusion of berzosertib, no clear relationship to dose): < 5%
- IC50 (ATR): 19 nM

From publication PMC8368196, “Phase 1 study of the ATR inhibitor berzosertib (formerly M6620, VX-970) combined with gemcitabine ± cisplatin in patients with advanced solid tumours” (British Journal of Cancer, 2021)
